Assay results taken from patent publication US10221426B2, “Constitutively active PYR/PYL receptor proteins for improving plant stress tolerance” (The Regents of the University of California, priority 2009, dated 2019).

Experiments:
Assay type in all cases: cell-based
Details in all cases: 10 μM
[1] = biological target: T1, PYL4-HAB1 (Arabidopsis thaliana, UniProt O80920); test: Yeast two-hybrid BD-PYL4 / AD-HAB1 interaction
T1 construct: BD-PYR/PYL fusion proteins were constructed in the same manner as for BD-PYR1 above; expressed in transfected cells; host or cells: yeast (Y190, as for BD-PYR1)
T1 sequence (O80920 1-207): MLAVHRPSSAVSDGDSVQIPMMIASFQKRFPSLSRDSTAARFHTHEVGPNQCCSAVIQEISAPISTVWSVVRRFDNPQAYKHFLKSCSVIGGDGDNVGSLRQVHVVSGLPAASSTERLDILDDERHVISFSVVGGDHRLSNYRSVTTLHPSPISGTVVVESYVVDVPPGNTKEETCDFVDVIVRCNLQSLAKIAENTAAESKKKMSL
T1 sequence (Q9CAJ0 23-511 partner): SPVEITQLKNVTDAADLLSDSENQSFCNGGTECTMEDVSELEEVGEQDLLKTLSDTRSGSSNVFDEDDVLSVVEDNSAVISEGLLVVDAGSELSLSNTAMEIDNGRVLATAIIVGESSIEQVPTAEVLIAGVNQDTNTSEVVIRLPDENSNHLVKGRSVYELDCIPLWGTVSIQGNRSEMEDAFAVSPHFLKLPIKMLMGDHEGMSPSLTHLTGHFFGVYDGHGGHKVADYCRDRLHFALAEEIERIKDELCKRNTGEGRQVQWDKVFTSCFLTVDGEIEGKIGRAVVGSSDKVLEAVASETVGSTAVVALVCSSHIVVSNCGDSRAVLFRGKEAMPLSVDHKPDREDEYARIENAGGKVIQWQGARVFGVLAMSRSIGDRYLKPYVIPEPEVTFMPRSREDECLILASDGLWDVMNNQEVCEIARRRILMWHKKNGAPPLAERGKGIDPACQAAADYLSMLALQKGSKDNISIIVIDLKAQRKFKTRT
Protocol: (§1) Given that PYR1 is necessary for pyrabactin action and is a predicted ligand-binding protein, we hypothesized that pyrabactin agonizes ABA signaling by inducing a protein-protein interaction between PYR1 and a downstream effector. To test this, ˜2 million prey cDNA clones were screened against a PYR1 Y2H bait construct on media containing 10 μM pyrabactin. To create the PYR1 Y2H bait construct, the Pyr1 open reading frame was PCR amplified from genomic DNA and cloned to pGem-T easy vector (Promega). After sequence confirmation, the Pyr1 ORF was then cloned in-frame between EcoRI and SalI sites of the pBD-GAL4 Cam vector (Stratagene) and transformed into yeast strain Y190. For the screen, an etiolated seedling cDNA library (J. Kim, K., Harter, A., Theologis, Proc Natl Acad Sci USA 94, 11786 (Oct. 28, 1997)) (ABRC stock CD4-22) was used. The cDNA library was first converted from phage to plasmid DNA, yielding 7.6×10^7 transformants. Plasmid DNA prepared from library was then used to transform Y190 as described in the GAL4 Two-Hybrid system manual (Stratagene). For each screen, 40 μg of prey plasmid was transformed into 1 ml of competent Y190 cell harboring bait construct and then grown on SD agar plates lacking His, Leu, and Trp, but containing 15 mM 3-AT and 10 μM pyrabactin. After 4 days incubation at 30° C., well-grown colonies were rescued and interactions validated using filter lift assay or chloroform-agarose overlay method and X-Gal staining. This identified two pyrabactin-dependent hits which sequencing determined encoded cDNAs for the PP2C HAB1, a close relative of the well-characterized ABA response factor ABI1 (A. Saez et al., The Plant Journal 37, 354 (2004); N. Leonhardt et al., THE PLANT CELL 16, 596 (2004)). Next, Y2H strains expressing an AD-HAB1 fusion protein and a BD-PYR1 fusion protein were grown on plates and tested for interactions in response to various compounds, all at 10 μM except for epi-brassinolide (50 nM) and dimethyl sulfoxide (DMSO) (carrier solvent, 1%). […] Thus, PYR1 interacts with HAB1 in a (+)-ABA dependent fashion.
To see if ABA and pyrabactin responsiveness is unique to PYR1, we tested 11 of the 13 PYL proteins as described above, using Y2H strains expressing an AD-HAB1 fusion protein and a BD-PYR/PYL fusion protein (listed at the left of FIG. 3A). BD-PYR/PYL fusion proteins were constructed in the same manner as for BD-PYR1 above. […] Of these, only Pyr1 is highly transcribed in seeds, which likely explains why mutations in Pyr1 cause the seeds to be insensitive to pyrabactin. […] However the interactions of PYLs 5-12 with the PP2Cs are indicative that the entire protein family is likely to share a similar mechanism of action involving PP2C modulation, as we describe below. […]

[2] = biological target: T2, PYL2-HAB1 (Arabidopsis thaliana, UniProt O80992); test: Yeast two-hybrid BD-PYL2 / AD-HAB1 interaction, X-gal stain
T2 construct: BD-PYR/PYL fusion proteins were constructed in the same manner as for BD-PYR1 above; expressed in transfected cells; host or cells: yeast (Y190, as for BD-PYR1)
T2 sequence (O80992 1-190): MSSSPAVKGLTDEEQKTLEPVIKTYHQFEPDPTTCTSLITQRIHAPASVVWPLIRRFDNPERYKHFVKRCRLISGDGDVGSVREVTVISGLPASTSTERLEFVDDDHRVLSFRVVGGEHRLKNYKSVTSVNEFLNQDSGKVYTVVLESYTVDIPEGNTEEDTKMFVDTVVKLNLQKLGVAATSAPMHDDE
T2 sequence (Q9CAJ0 23-511 partner): T1 sequence (Q9CAJ0 23-511 partner)
Protocol: as §1, with “fashion. […]” for “fashion.”

[3] = biological target: T3, PYL1-HAB1 (Arabidopsis thaliana, UniProt Q8VZS8); test: Yeast two-hybrid BD-PYL1 / AD-HAB1 interaction, X-gal stain
T3 construct: BD-PYR/PYL fusion proteins were constructed in the same manner as for BD-PYR1 above; expressed in transfected cells; host or cells: yeast (Y190, as for BD-PYR1)
T3 sequence (Q8VZS8 1-221): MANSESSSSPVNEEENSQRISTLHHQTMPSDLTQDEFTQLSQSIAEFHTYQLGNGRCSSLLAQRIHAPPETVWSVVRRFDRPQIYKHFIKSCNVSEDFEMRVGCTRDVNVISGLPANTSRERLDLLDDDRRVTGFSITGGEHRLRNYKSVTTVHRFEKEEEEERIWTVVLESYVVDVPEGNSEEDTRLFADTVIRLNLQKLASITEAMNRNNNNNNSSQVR
T3 sequence (Q9CAJ0 23-511 partner): T1 sequence (Q9CAJ0 23-511 partner)
Protocol: Given that PYR1 is necessary for pyrabactin action and is a predicted ligand-binding protein, we hypothesized that pyrabactin agonizes ABA signaling by inducing a protein-protein interaction between PYR1 and a downstream effector. To test this, ˜2 million prey cDNA clones were screened against a PYR1 Y2H bait construct on media containing 10 μM pyrabactin. To create the PYR1 Y2H bait construct, the Pyr1 open reading frame was PCR amplified from genomic DNA and cloned to pGem-T easy vector (Promega). After sequence confirmation, the Pyr1 ORF was then cloned in-frame between EcoRI and SalI sites of the pBD-GAL4 Cam vector (Stratagene) and transformed into yeast strain Y190. For the screen, an etiolated seedling cDNA library (J. Kim, K., Harter, A., Theologis, Proc Natl Acad Sci USA 94, 11786 (Oct. 28, 1997)) (ABRC stock CD4-22) was used. The cDNA library was first converted from phage to plasmid DNA, yielding 7.6×10^7 transformants. Plasmid DNA prepared from library was then used to transform Y190 as described in the GAL4 Two-Hybrid system manual (Stratagene). […] This identified two pyrabactin-dependent hits which sequencing determined encoded cDNAs for the PP2C HAB1, a close relative of the well-characterized ABA response factor ABI1 (A. Saez et al., The Plant Journal 37, 354 (2004); N. Leonhardt et al., THE PLANT CELL 16, 596 (2004)). […]

Row | Structure (SMILES) | PYL4-HAB1 interaction by X-gal stain [1] | PYL2-HAB1 interaction by X-gal stain [2] | PYL1-HAB1 interaction by X-gal stain [3]
1 | CC1=CC(=O)CC(C)(C)C1(O)/C=C/C(C)=C\C(=O)O (single isomer, unassigned; (+)) [(+)-ABA] | respond | respond | 
2 | CC1=CC(=O)CC(C)(C)[C@@]1(O)/C=C/C(C)=C\C(=O)O [ABA, Abscisic acid] | interact with HAB1 in an ABA-stimulated manner | interact with HAB1 in an ABA-stimulated manner | interact with HAB1 in an ABA-stimulated manner
3 | O=S(=O)(NCc1ccccn1)c1ccc(Br)c2ccccc12 [pyrabactin] |  |  | promotes interactions
